# How the values were obtained:
# [1] = target: T1, Melanin-concentrating hormone receptor 1 (Homo sapiens, UniProt Q99705); assay: Displacement of [3H]4-(benzyloxy)-1-(1-(2-(pyrrolidin-1-yl)ethyl)-1H-indazol-5-yl)pyridin-2(1H)-one from MCH-1 receptor expressed in CHO-K1 cells; format: cell-based
# [2] = target: Voltage-gated inwardly rectifying potassium channel KCNH2 (Homo sapiens, UniProt Q12809); assay: Inhibition of human ERG expressed in HEK cells by mini-patch clamp assay
# Cytochrome P450 3A4 = Cytochrome P450 3A4 (Homo sapiens, UniProt P08684); assay: Inhibition of CYP3A4; format: ADME
# [3] = Half life in mouse liver microsomes; format: ADME, Microsome
# [4] = Half life in human liver microsomes; format: ADME, Microsome
# [5] = Aqueous solubility in PBS at pH 7.4; format: physicochemical
# Mus musculus [6] = assay: Antiobesity activity in diet-induced obese C57BL/6J mouse model assessed as reduction of body weight at 30 mg/kg, po bid for 5 days; format: functional; design: scale not given: the % may be the effect or the level left
# Cytochrome P450 1A2 = target: T2, Cytochrome P450 1A2 (Homo sapiens, UniProt P05177); assay: Inhibition of CYP1A2; format: ADME
# T2 sequence (P05177 whole entry): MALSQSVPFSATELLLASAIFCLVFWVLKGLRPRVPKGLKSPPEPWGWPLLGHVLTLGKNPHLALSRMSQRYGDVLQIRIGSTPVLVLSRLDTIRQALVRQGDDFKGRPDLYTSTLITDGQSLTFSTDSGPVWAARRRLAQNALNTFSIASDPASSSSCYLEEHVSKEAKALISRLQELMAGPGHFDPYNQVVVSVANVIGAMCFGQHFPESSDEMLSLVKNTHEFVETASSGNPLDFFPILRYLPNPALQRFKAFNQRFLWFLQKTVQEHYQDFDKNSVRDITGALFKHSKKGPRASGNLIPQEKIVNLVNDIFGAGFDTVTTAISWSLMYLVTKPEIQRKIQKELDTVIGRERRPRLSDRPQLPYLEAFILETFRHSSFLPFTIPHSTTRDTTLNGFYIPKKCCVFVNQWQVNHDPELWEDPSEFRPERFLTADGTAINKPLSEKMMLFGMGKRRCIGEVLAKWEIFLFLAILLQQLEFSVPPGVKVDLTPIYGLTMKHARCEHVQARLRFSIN
# [7] = target: T1, Melanin-concentrating hormone receptor 1; assay: Antagonistic activity at MCH-1 receptor expressed in CHO-K1 cell assessed as inhibition of MCH-induced calcium release; format: functional, cell-based
# [8] = Plasma concentration in mouse at 30 mg/kg after 6 hrs; format: ADME, organism-based; design: dose 30 mg/kg
# [9] = Drug level in mouse brain at 30 mg/kg after 6 hrs; format: ADME, organism-based; design: dose 30 mg/kg; settings: read-out: Drug uptake
# [10] = Ratio of drug level in brain to plasma in mouse at 30 mg/kg after 6 hrs; format: ADME, organism-based; design: dose 30 mg/kg; settings: read-out: BPR
# Cytochrome P450 2B6 = target: T3, Cytochrome P450 2B6 (Homo sapiens, UniProt P20813); assay: Inhibition of CYP2B6; format: ADME
# T3 sequence (P20813 whole entry): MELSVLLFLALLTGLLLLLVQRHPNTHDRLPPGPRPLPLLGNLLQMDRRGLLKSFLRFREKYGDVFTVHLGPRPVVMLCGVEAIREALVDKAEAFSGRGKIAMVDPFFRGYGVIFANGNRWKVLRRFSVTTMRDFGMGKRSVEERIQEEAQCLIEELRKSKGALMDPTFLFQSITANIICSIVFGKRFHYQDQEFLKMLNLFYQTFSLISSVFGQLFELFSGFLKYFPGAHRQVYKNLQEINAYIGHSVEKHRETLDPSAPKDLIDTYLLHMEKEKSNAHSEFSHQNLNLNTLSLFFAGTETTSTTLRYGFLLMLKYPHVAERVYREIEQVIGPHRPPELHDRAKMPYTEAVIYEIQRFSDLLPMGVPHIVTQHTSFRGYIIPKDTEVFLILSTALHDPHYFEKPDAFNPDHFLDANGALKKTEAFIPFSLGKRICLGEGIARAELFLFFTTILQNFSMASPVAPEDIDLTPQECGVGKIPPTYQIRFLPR
# Cytochrome P450 2C19 = Cytochrome P450 2C19 (Homo sapiens, UniProt P33261); assay: Inhibition of CYP2C19; format: ADME
# Cytochrome P450 2D6 = Cytochrome P450 2D6 (Homo sapiens, UniProt P10635); assay: Inhibition of CYP2D6; format: ADME
# Cytochrome P450 2C9 = Cytochrome P450 2C9 (Homo sapiens, UniProt P11712)
# [11] = Plasma concentration in mouse at 10 mg/kg after 6 hrs; format: ADME, organism-based; design: dose 10 mg/kg
# [12] = Drug level in mouse brain at 10 mg/kg after 6 hrs; format: ADME, organism-based; design: dose 10 mg/kg; settings: read-out: Drug uptake
# [13] = Ratio of drug level in brain to plasma in mouse at 10 mg/kg after 6 hrs; format: ADME, organism-based; design: dose 10 mg/kg; settings: read-out: BPR
# Mus musculus [14] = assay: Antiobesity activity in diet-induced obese C57BL/6J mouse model assessed as reduction of body weight at 30 mg/kg, po qd for 5 days; format: functional; design: scale not given: the % may be the effect or the level left
# T1 sequence (Q99705 whole entry): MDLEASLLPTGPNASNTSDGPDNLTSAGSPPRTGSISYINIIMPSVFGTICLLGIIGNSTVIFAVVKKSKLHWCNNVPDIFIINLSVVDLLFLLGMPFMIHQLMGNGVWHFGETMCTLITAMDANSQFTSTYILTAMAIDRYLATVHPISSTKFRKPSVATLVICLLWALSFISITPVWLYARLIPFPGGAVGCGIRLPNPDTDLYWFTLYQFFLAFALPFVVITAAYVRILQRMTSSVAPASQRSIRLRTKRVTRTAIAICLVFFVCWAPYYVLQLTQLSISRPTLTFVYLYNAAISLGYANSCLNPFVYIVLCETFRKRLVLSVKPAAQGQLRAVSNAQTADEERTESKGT
# Voltage-gated inwardly rectifying potassium channel KCNH2, sequence (Q12809 whole entry): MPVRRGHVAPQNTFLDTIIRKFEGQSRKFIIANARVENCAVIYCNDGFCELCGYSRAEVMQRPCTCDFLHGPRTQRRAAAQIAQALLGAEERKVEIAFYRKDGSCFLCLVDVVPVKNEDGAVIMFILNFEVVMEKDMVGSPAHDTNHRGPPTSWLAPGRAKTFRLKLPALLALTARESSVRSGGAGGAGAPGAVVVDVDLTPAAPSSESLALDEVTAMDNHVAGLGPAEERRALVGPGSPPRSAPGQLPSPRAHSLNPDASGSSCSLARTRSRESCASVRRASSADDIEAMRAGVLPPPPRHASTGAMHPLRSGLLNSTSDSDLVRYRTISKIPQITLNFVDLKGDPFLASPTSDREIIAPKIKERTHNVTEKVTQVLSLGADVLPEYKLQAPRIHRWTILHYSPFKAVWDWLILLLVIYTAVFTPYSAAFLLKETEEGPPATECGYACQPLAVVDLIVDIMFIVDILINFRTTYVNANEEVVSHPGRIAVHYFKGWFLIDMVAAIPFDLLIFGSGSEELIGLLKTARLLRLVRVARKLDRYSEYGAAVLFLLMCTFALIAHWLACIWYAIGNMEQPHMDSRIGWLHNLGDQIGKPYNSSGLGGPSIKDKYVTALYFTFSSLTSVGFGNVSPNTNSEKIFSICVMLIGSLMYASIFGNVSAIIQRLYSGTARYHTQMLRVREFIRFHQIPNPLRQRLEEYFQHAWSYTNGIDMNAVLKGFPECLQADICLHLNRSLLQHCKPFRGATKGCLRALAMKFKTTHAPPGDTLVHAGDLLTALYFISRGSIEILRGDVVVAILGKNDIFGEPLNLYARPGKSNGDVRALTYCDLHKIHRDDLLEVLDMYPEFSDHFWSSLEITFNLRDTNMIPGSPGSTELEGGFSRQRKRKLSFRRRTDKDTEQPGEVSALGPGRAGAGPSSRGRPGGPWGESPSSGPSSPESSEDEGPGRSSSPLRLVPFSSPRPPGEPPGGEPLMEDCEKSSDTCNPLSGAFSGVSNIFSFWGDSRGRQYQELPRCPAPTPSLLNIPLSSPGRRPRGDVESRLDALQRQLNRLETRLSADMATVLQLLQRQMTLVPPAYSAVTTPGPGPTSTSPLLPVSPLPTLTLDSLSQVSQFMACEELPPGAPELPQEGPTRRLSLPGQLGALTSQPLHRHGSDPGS
# Cytochrome P450 3A4, sequence (P08684 whole entry): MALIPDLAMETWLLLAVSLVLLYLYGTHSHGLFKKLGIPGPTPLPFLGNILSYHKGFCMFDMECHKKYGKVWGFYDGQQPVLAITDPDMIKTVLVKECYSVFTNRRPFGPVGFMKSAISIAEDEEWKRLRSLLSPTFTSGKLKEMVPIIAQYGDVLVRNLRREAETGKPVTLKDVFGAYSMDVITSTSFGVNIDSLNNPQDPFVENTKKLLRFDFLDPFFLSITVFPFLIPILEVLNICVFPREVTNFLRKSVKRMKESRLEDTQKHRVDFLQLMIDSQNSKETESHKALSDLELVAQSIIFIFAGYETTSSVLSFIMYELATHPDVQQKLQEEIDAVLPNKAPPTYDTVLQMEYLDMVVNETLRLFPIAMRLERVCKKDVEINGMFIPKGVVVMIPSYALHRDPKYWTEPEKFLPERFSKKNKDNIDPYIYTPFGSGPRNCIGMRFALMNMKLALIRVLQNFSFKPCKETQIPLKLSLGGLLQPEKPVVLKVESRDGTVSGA
# Cytochrome P450 2D6, sequence (P10635 whole entry): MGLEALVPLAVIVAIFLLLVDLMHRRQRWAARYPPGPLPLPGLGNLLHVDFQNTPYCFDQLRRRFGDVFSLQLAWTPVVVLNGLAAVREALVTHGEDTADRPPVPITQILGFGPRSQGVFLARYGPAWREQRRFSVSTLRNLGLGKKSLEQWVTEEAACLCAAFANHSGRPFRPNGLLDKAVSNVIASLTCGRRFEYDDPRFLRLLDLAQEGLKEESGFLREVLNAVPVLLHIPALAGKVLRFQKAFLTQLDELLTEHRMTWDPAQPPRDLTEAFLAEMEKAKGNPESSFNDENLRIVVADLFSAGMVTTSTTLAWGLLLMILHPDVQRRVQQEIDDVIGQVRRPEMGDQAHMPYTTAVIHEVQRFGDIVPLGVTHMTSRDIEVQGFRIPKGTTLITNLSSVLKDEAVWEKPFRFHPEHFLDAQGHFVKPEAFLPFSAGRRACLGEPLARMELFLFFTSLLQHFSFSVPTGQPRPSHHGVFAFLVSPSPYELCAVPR
# Cytochrome P450 2C9, sequence (P11712 whole entry): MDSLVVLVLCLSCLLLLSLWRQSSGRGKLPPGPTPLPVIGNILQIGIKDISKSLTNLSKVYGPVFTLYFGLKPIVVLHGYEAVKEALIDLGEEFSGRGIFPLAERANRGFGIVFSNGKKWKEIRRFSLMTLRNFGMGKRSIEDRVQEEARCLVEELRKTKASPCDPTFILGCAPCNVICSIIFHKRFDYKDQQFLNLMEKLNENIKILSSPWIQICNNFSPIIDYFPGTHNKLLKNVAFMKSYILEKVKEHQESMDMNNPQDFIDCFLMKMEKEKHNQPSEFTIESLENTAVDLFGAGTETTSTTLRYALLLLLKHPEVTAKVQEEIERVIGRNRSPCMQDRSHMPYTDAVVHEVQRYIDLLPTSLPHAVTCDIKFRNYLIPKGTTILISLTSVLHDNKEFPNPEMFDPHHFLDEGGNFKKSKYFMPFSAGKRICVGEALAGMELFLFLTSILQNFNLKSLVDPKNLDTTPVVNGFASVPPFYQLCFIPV
# Cytochrome P450 2C19, sequence (P33261 whole entry): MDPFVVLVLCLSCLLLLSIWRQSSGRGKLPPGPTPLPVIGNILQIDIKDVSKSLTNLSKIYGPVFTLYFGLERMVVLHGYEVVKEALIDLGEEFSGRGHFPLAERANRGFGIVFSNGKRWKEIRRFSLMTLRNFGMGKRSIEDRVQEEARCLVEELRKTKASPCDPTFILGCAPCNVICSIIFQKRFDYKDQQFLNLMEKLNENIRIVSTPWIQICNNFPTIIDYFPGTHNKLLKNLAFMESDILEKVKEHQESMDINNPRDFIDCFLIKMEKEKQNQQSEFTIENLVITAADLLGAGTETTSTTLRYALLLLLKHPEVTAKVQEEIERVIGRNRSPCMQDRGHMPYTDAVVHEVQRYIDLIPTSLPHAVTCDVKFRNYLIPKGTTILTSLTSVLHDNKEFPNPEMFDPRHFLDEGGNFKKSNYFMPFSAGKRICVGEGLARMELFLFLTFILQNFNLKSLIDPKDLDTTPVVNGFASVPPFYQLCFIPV
SMILES,Ki [1],IC50 [2],other results
O=c1cc(OCc2ccccc2)ccn1-c1ccc2c(cnn2CC2=NCCN2)c1,22.6 nM,8500 nM,IC50 (Cytochrome P450 3A4): 38000 nM; half-life [3]: 9.67 h; half-life [4]: 4.33 h; solubility [5]: 410 µM; Activity (Mus musculus [6]): 3.5%
COC[C@H]1CCCN1CCn1ncc2cc(-n3ccc(OCc4ccccc4)cc3=O)ccc21,11.2 nM,800 nM,–
O=c1cc(OCc2ccccc2)ccn1-c1ccc2c(cnn2CCN2CCC[C@@H]2CO)c1,3.1 nM,2300 nM,–
CCCCn1ncc2cc(-n3ccc(OCc4ccccc4)cc3=O)ccc21,> 5000 nM,–,–
CN(C)CCn1ncc2cc(-n3ccc(OCc4ccccc4)cc3=O)ccc21,4.7 nM,1800 nM,–
O=c1cc(OCc2ccccc2)ccn1-c1ccc2c(cnn2CCN2CCCC2)c1,–,–,IC50 (Cytochrome P450 3A4): 10000 nM; IC50 (Cytochrome P450 1A2): > 10000 nM; half-life [3]: 11.6 h; half-life [4]: 5.05 h; solubility [5]: 492 µM; IC50 [7]: 14 nM; concentration at 6 h [8]: 2220 ng/mL; concentration at 6 h [9]: 1480 ng/g; Kp at 6 h [10]: 0.7
CN(C)CCCn1ncc2cc(-n3ccc(OCc4ccccc4)cc3=O)ccc21,12.6 nM,1400 nM,–
CN(C)CC(O)Cn1ncc2cc(-n3ccc(OCc4ccccc4)cc3=O)ccc21 (stereo not given),37.7 nM,12100 nM,–
O=c1cc(OCc2ccccc2)ccn1-c1ccc2c(cnn2CCN2CC[C@H](O)C2)c1,4.7 nM,9000 nM,IC50 (Cytochrome P450 3A4): 7700 nM; IC50 (Cytochrome P450 1A2): > 10000 nM; IC50 (Cytochrome P450 2B6): > 10000 nM; IC50 (Cytochrome P450 2C19): > 10000 nM; IC50 (Cytochrome P450 2D6): > 10000 nM; half-life [3]: 7.22 h; half-life [4]: 4.82 h; solubility [5]: > 500 µM; Activity (Mus musculus [6]): 3.3%; IC50 (Cytochrome P450 2C9): > 10000 nM
CO[C@H]1CCN(CCn2ncc3cc(-n4ccc(OCc5ccccc5)cc4=O)ccc32)C1,9.4 nM,–,–
O=c1cc(OCc2ccccc2)ccn1-c1ccc2c(cnn2C[C@@H]2CCCN2)c1,12 nM,2000 nM,–
O=c1cc(OCc2ccccc2)ccn1-c1ccc2c(cnn2CC2C[C@@H](O)CN2)c1 (stereo not given in full),33 nM,> 30000 nM,–
CN1CCN=C1Cn1ncc2cc(-n3ccc(OCc4ccccc4)cc3=O)ccc21,30.4 nM,–,–
O=c1cc(OCc2ccccc2)ccn1-c1ccc2c(cnn2CCN2CCOCC2)c1,43.4 nM,> 30000 nM,–
O=c1cc(OCc2ccccc2)ccn1-c1ccc2c(cnn2CCN2CC3CC2CO3)c1 (stereo not given),17.3 nM,16000 nM,–
O=c1cc(OCc2ccccc2)ccn1-c1ccc2c(cnn2CCN2CCNCC2)c1,24.3 nM,–,–
O=c1c2cc(-c3ccccc3)oc2ccn1-c1ccc2c(cnn2CCN2CCCC2)c1,9.7 nM,–,–
O=c1c2cc(-c3ccc(F)cc3)oc2ccn1-c1ccc2c(cnn2CCN2CCCC2)c1,6.1 nM,–,–
O=c1c2cc(-c3ccc(Cl)cc3)oc2ccn1-c1ccc2c(cnn2CCN2CCCC2)c1,5.2 nM,–,IC50 [7]: 23 nM; concentration at 6 h [11]: 141 ng/mL; concentration at 6 h [12]: 2250 ng/g; Kp at 6 h [13]: 16; Activity (Mus musculus [14]): 4.5%
O=c1c2cc(-c3ccccc3Cl)oc2ccn1-c1ccc2c(cnn2CCN2CCCC2)c1,28 nM,–,–
O=c1c2cc(-c3cccc(Cl)c3)oc2ccn1-c1ccc2c(cnn2CCN2CCCC2)c1,38 nM,–,–
O=c1c2cc(-c3ccc(Cl)cc3Cl)oc2ccn1-c1ccc2c(cnn2CCN2CCCC2)c1,14 nM,–,–
O=c1c2cc(-c3ccc(Cl)cc3F)oc2ccn1-c1ccc2c(cnn2CCN2CCCC2)c1,4.2 nM,–,–
COc1cc(Cl)ccc1-c1cc2c(=O)n(-c3ccc4c(cnn4CCN4CCCC4)c3)ccc2o1,48 nM,–,–
O=c1c2cc(-c3ccccn3)oc2ccn1-c1ccc2c(cnn2CCN2CCCC2)c1,59 nM,–,–
O=c1c2cc(-c3ncccn3)oc2ccn1-c1ccc2c(cnn2CCN2CCCC2)c1,1680 nM,–,–

# Reference: ChEMBL document CHEMBL1287684, “5-(pyridinon-1-yl)indazoles and 5-(furopyridinon-5-yl)indazoles as MCH-1 antagonists” (Bioorg Med Chem Lett, 2010)
